Measurements as given in US10626077B2, “Salvianolic acid compound T, preparation method therefor, and use thereof” (TASLY PHARMACEUTICAL GROUP CO., LTD., priority 2013, dated 2020).

How the values were obtained:
[1] = test system: rats with myocardial infarction induced by coronary artery ligation; test: Myocardial infarction rate (TTC staining) after coronary artery ligation; assay type: in vivo, SD rats; conditions: high-dose group compared with aspirin group; FIG. 11 heart biopsy
Method: Clean male SD rats were taken and placed in groups randomly according to the body-weight, including pseudo operation group (distilled water), model group (distilled water), aspirin group, (S)-salvianolic acid T low-dose group, (S)-salvianolic acid T high-dose group, and there were 10 rats in each group. Each group of rats were administrated by gastric administration once a day, continuously for 10 days. […] Recording standard II lead ECG at 5 minutes before surgery, 0 s, 1 min, 5 min, 15 min, 1 h, 4 h after the ligation, to investigate the changes of J point of ECG. Taking out the heart immediately after the end of the experiment, washing away the blood with normal saline, cutting off the atrium and the bottom of the blood vessels, weighing the mass of the ventricle, cutting the ventricle into 5 pieces on average along the atrioventricular groove and putting them into 1% (w/v) TTC solution, dyeing in the water bath at a constant temperature of 37 °C for 5 min, taking digital photos firstly after taking them out, then separating the unstained parts (that is, the infarct parts) and weighing to calculate the percentage of them in the mass of total ventricular (myocardial infarction percentage), and performing t test with ischemia model group. The formula for calculating the infarct percentage is as follows: Infarct percentage (%)=(the mass of pale areas/the mass of the ventricle)×100%

[2] = Determination of reducing capacity (potassium ferricyanide / ferric chloride, absorbance at 700 nm)
Method: 0.5 ml of 200 mM phosphate buffer (pH6.8) containing different concentrations of the (S)/(R)-salvianolic acid T and 0.5 ml of 1.0% (w/v) potassium ferricyanide solution were sucked respectively and cooled on an ice bath after being heated on a water bath (50[…]) for 20 min. 0.5 ml of 10% trichloroacetic acid solution was added and centrifuged at […] for 10 min. 1.0 ml of the resulting supernatant was taken, into which 1.0 ml of distilled water and 0.2 ml of 0.1% (w/v) ferric chloride solution were added, stood still for 10 min and the absorbance was measured at 700 nm. Meanwhile, the blank experiment was carried out. Vitamin C is a strongly reducing substance, acting as positive control in this study. Reducing capacity of the sample is represented by subtracting the absorbance of the blank control from the absorbance of the tested sample. Thus, it means the higher absorbance, the stronger reducing capacity.

[3] = DPPH free-radical scavenging reaction
Method: Absorbance of the reaction solution was measured at 517 nm. In this study, vitamin C was regarded as a positive control. Free-radical scavenging rate was calculated in accordance with the following equation: Free-radical scavenging rate (%)=[1−Asample/Acontrol)/Acontrol]×100% Wherein, the Asample means the absorbance of the tested samples, and Acontrol means the absorbance of blank control.

[4] = test system: L929 cells induced by TGF-β1; test: Inhibition of L929 cell proliferation induced by TGF-β1 (MTT); assay type: cell-based; conditions: 2 μg/L TGF-β1, 72 h, MTT method
Method: L929 cells with a cell population of 5×10^7/L adjusted by DMEM culture solution containing 10% fetal bovine serum were seeded into 96 well plate, cultured for 24 h. Supplementing the same culture medium containing 2 μg/L TGF-β1 and (S)/(R)-salvianolic acid T of different concentrations. There were 6 multiple pores in each group, final concentration of (S)/(R)-salvianolic acid T was set as 0, 1, 3, 10, 20, 40, 80, 150 μmol/L. Removing medium after being cultured for 72 h, assaying the cell activity by MTT method.

[5] = test system: pituitrin-caused acute myocardial ischemia in rats; test: Pituitrin-caused experimental acute myocardial ischemia in rats (ECG J point and T wave); assay type: in vivo, SD rats; design: J point / T wave: unit not given here
Method: Administration dose of the (R)-salvianolic acid T lyophilized powder was 10 mg/kg body-weight in high-dose group; 5.0 mg/kg body-weight in low-dose group.
2.1 Screening of Animals: Before formal experiment, rats were injected via vena caudalis with pituitrin (Pit) (1 U/kg). Normal ECG and the ECG of 5 min after injection were recorded to observe J point elevation and T wave abnormality. Animals who had abnormal ECG before injection or who were insensitive to Pit were rejected.
2.2 Grouping of Animals: The desirable rats were divided into 3 groups randomly, respectively named […]Model control group, □(R)-salvianolic acid T lyophilized powder low-dose group; □(R)-salvianolic acid T lyophilized powder high-dose group.
3. Experimental Methods: SD rats, in body-weight of 220-250 g, half male and half female, were randomly divided into groups, 10 animals in each group. The rats in the treatment groups were drenched with aqueous suspensions of different samples each day, while the rats in the model control group were drenched with equal volume of normal saline. All animals were consecutively administered for 7 days. 40 min after final administration, the rats were anesthetized and connected with devices to record lead II normal ECG. The pituitrin (Pit) was injected at a constant speed in the dosage of 1 U/kg body-weight via vena caudalis within about 10 s. ECG changes were recorded at 0 s, 5 s, 10 s, 15 s, 30 s, 45 s, 1 min, 2 min, 3 min, 4 min, 5 min, 10 min and 15 min after administration. Differences between pre injection and post injection of Pit of each group as well as between the treatment group and the model control group were compared to analyze changes of J point and T wave, and the data were analyzed by t-test.

[6] = compared with positive control vitamin C
[7] = high-dose group (10 mg/kg), 0 s after pituitrin
[8] = high-dose group (10 mg/kg), 15 s after pituitrin
[9] = high-dose group (10 mg/kg), 30 s after pituitrin
[10] = high-dose group (10 mg/kg), 45 s after pituitrin
[11] = high-dose group (10 mg/kg), 1 min after pituitrin
[12] = high-dose group (10 mg/kg), 5 min after pituitrin
[13] = high-dose group (10 mg/kg), 10 min after pituitrin
[14] = high-dose group (10 mg/kg, drenched 7 days), normal ECG before pituitrin
[15] = low-dose group (5.0 mg/kg), 0 s after pituitrin
[16] = low-dose group (5.0 mg/kg), 15 s after pituitrin
[17] = low-dose group (5.0 mg/kg), 30 s after pituitrin
[18] = low-dose group (5.0 mg/kg), 45 s after pituitrin
[19] = low-dose group (5.0 mg/kg), 1 min after pituitrin
[20] = low-dose group (5.0 mg/kg), 5 min after pituitrin
[21] = low-dose group (5.0 mg/kg), 10 min after pituitrin
[22] = low-dose group (5.0 mg/kg, drenched 7 days), normal ECG before pituitrin

Compound: O=C(/C=C/c1ccc(O)c(O)c1/C(=C\c1ccc(O)c(O)c1)C(=O)O)O[C@H](Cc1ccc(O)c(O)c1)C(=O)O [(R)-salvianolic acid T]
- effect on preventing acute myocardial infarction induced by coronary artery ligation [1]: equal effect
- reducing capacity compared with vitamin C [2, 6]: much stronger than that of vitamin C
- reducing capacity (absorbance at 700 nm minus blank control) ([2]; sample 3.125 μg/ml): 0.152 ± 0.034
- reducing capacity (absorbance at 700 nm minus blank control) ([2]; sample 6.25 μg/ml): 0.212 ± 0.009
- reducing capacity (absorbance at 700 nm minus blank control) ([2]; sample 12.5 μg/ml): 0.042 ± 0.011
- reducing capacity (absorbance at 700 nm minus blank control) ([2]; sample 25 μg/ml): 0.761 ± 0.018
- reducing capacity (absorbance at 700 nm minus blank control) ([2]; sample 50 μg/ml): 1.561 ± 0.026
- free-radical scavenging compared with vitamin C [3, 6]: much higher free-radical scavenging than that of the vitamin C
- Free-radical scavenging rate ([3]; sample 0.625 μg/ml, 100 μM DPPH, 20 min, 25° C.): 10.51 ± 0.73%
- Free-radical scavenging rate ([3]; sample 1.25 μg/ml): 28.15 ± 2.47%
- Free-radical scavenging rate ([3]; sample 2.5 μg/ml): 43.41 ± 1.85%
- Free-radical scavenging rate ([3]; sample 5 μg/ml): 85.59 ± 8.75%
- Free-radical scavenging rate ([3]; sample 10 μg/ml): 99.47 ± 5.14%
- IC50 [4]: 26.9 µM
- effect of anti-acute myocardiac ischemia ([5]; 10.0 mg/kg): had effect of anti-acute myocardiac ischemia
- J point [5, 7]: −0.040 ± 0.039
- T wave [5, 7]: 0.128 ± 0.106
- J point [5, 8]: −0.069 ± 0.035
- T wave [5, 8]: 0.150 ± 0.101
- J point [5, 9]: −0.058 ± 0.035
- T wave [5, 9]: 0.100 ± 0.095
- J point [5, 10]: −0.052 ± 0.031
- T wave [5, 10]: 0.134 ± 0.105
- J point [5, 11]: −0.016 ± 0.037
- T wave [5, 11]: 0.145 ± 0.099
- J point [5, 12]: −0.058 ± 0.049
- T wave [5, 12]: 0.127 ± 0.104
- J point [5, 13]: -0.061 ± 0.049
- T wave [5, 13]: 0.150 ± 0.102
- J point [5, 14]: −0.049 ± 0.037
- T wave [5, 14]: 0.099 ± 0.073
- J point [5, 15]: −0.040 ± 0.027
- T wave [5, 15]: 0.134 ± 0.104
- J point [5, 16]: 0.023 ± 0.039
- T wave [5, 16]: 0.211 ± 0.109
- J point [5, 17]: −0.052 ± 0.022
- T wave [5, 17]: 0.189 ± 0.120
- J point [5, 18]: −0.030 ± 0.041
- T wave [5, 18]: 0.176 ± 0.137
- J point [5, 19]: −0.016 ± 0.032
- T wave [5, 19]: 0.151 ± 0.097
- J point [5, 20]: −0.034 ± 0.052
- T wave [5, 20]: 0.121 ± 0.101
- J point [5, 21]: −0.025 ± 0.051
- T wave [5, 21]: 0.142 ± 0.099
- J point [5, 22]: −0.054 ± 0.046
- T wave [5, 22]: 0.101 ± 0.069
